Entries after “also recorded” stand apart in the source; their conditions may differ.
Tests used:
Versican (VCAN) = assay: Immunohistochemical staining of mouse back skin, dermal papilla cell marker Versican (VCAN); format: in vivo, mice; conditions: Day 21
Description: (§1) The development of skin tissue, which becomes the surrounding support for hair growth, plays an important role in hair growth. As such, in order to compare the degree of the development of skin tissue in 6 experimental groups of the vehicle-applied control group (topical control), the Minoxidil-applied positive control group (topical minoxidil), the Cp 1 application group (topical Cp 1), the candlelit-shaped microneedle control group (CMN control), the Cp 1 microneedle administration group (Cp 1 conv-DMN) and the Cp 1 candlelit-shaped microneedle administration group (Cp 1 CMN), β-catenin and PCNA, which are biomarkers indicating skin tissue proliferation, the vascular endothelial cell marker MECA 32 showing the development of the vascular network around the mouse hair follicle, and the dermal papilla cell (DP) marker Versican (VCAN), which is generated in the hair follicle anagen phase showing the hair follicle anagen phase inducing effect, were observed by immunohistochemical staining. To this end, as in Example 1-2, the back tissue of the mice was collected on Day 21, then the frozen tissue was sectioned, and the fluorescent material-conjugated antibody was treated on the tissue, and then the fluorescence images were analyzed. The antibodies used were β-catenin (BD Biosciences, San Jose, CA, USA), PCNA (LSBIO, Seattle, WA, USA), VCAN (LSBIO, Seattle, WA, USA) and MECA-32 (Novus Biologicals, CA, USA), respectively.

MECA 32 = assay: Immunohistochemical staining of mouse back skin, vascular endothelial cell marker MECA 32; format: in vivo, mice; conditions: Day 21
Description: as §1

β-catenin = assay: Immunohistochemical staining of mouse back skin, β-catenin; format: in vivo, mice; conditions: Day 21
Description: as §1

[1] = test system: C57BL/6 mice with hair follicles in the telogen phase; assay: Hair growth in hair-removed C57BL/6 mice, evaluated on Day 21 (visual/Image J, H&E); format: in vivo; conditions: for skin area converted to black (anagen phase) with respect to the total hair-removed skin area / skin area with actual hair growth as a percentage of the total hair removal skin area: 50 μL
Description: 7-week-old C57BL/6 mice (Orient Bio, Korea) with hair follicles in the telogen phase were purchased and the experiment was performed. The experiment was conducted using 4 mice each for 6 experimental groups of a vehicle-applied control group (topical control), a Minoxidil-applied positive control group (topical Minoxidil), an Cp 1-applied group (topical Cp 1), a candlelit-shaped microneedle control group (CMN control), an Cp 1 microneedle administration group (Cp 1 conv-DMN) and an Cp 1 candlelit-shaped microneedle administration group (Cp 1 CMN).
In the topical formulation, polyethylene glycol 400 (PEG 400; Sigma-Aldrich, St. Louis, MO, USA) and ethanol (99.5°; Sigma-Aldrich) were mixed in 50 μL solution with a ratio of 7:3 (v/v) containing 2% (w/v) of minoxidil (Sigma-Aldrich) and 0.002% (w/v) of Cp-1 (2 μg per day). The topical formulation groups' 50 μL solutions were administered twice a day.
The experiment was started in a pink skin condition by removing the hair on the back of the mice, and the drug application was carried out twice a day for 21 days, and when injected using a microneedle, it was injected once every 2 days and was not injected on last Day 21.
On Day 21 of the administration, the area in which the color of the back of the mice was changed to black, that is, the area converted to the anagen phase among the shaved areas was analyzed with the naked eye and the Image J software (National Institutes of Health, Bethesda, MD, USA), which is an image analysis program.
On Day 21 of the administration, the ratio of actual hair growth on the back of the mice was analyzed with the naked eye and the Image J software (National Institutes of Health, Bethesda, MD, USA), which is an image analysis program.
On Day 21 of the administration, the distribution rate by hair growth cycle in mice was compared.

[2] = general microneedle or candlelit-shaped microneedle
[3] = topical application twice a day
[4] = topical application twice a day, 2% (w/v) minoxidil or 0.002% (w/v) Cp 1

| SMILES | expression level of VCAN (rank order of groups) (Versican (VCAN); [2]) | expression level of VCAN (rank order of groups) (Versican (VCAN); topical application) | expression level of MECA 32 (rank order of groups) (MECA 32; [2]) | expression level of MECA 32 (rank order of groups) (MECA 32; topical application) | β-catenin expression (β-catenin; Cp 1 applied, compared with Minoxidil applied) | β-catenin expression (β-catenin; administered using a candlelit-shaped microneedle) | β-catenin expression (β-catenin; administered with a microneedle, compared with Minoxidil applied) | skin thickness and hair thickness ([1]; administered using microneedles, especially candlelit-shaped microneedles) | hair growth effect and skin tissue development (visual observation, H&E) [1, 3] | skin area converted to black (anagen phase) with respect to the total hair-removed skin area [1, 4] [%] | skin area with actual hair growth as a percentage of the total hair removal skin area [1, 4] [%] | skin thickness and hair thickness ([1]; topical application, compared to topical Minoxidil) | hair follicles converted to the anagen phase (distribution rate by hair growth cycle, H&E) [1, 4] [%] |
| --- | --- | --- | --- | --- | --- | --- | --- | --- | --- | --- | --- | --- | --- |
| CCCOc1ccc(S(=O)(=O)N2CCC(CCO[N+](=O)[O-])(CCO[N+](=O)[O-])CC2)cc1-c1nc2c(CCC)cn(CC)c2c(=O)[nH]1 [Cp 1, (1-((3-(5-ethyl-4-oxo-7-propyl-4,5-dihydro-3H-pyrrolo[3,2-d]pyrimidin-2-yl)-4-propoxyphenyl)sulfonyl)piperidine-4,4-diyl)bis(ethane-2,1-diyl) dinitrate] | increased in the order of Minoxidil application, Cp 1 application, Cp 1 administration using a general microneedle and M-19 administration using a candlelit-shaped microneedle | increased in the order of Minoxidil application, Cp 1 application, Cp 1 administration using a general microneedle and M-19 administration using a candlelit-shaped microneedle | increased in the order of Minoxidil application. Cp 1 application, Cp 1 administration using a general microneedle and M-19 administration using a candlelit-shaped microneedle | increased in the order of Minoxidil application. Cp 1 application, Cp 1 administration using a general microneedle and M-19 administration using a candlelit-shaped microneedle | higher | highest β-catenin expression effect | higher | more significantly improved skin thickening effect and hair thickness improvement effect | increased skin thicknesses along with the hair growth effect; also recorded: more effective than Minoxidil treatment | 92.1±3.0 | 61.0±14.0 | more improved skin thickening effect and hair thickness improvement effect |  |
| Nc1cc(N2CCCCC2)nc(N)[n+]1[O-] [Minoxidil, 2,4-diamino-6-piperidinopyrimidine-3-oxide, reference compound] |  | increased in the order of Minoxidil application, Cp 1 application, Cp 1 administration using a general microneedle and M-19 administration using a candlelit-shaped microneedle |  | increased in the order of Minoxidil application. Cp 1 application, Cp 1 administration using a general microneedle and M-19 administration using a candlelit-shaped microneedle |  |  |  |  | increased skin thicknesses along with the hair growth effect | 65.3±22.3 | 38.4±17.1 |  | 52.5±1.3 |

Reference: patent US20250195522A1, “TRANSDERMAL DOSAGE FORM, FOR PROMOTING LOCAL BLOOD FLOW, OF DUAL-ACTING PDE5 INHIBITOR/ORGANIC NITRATE ESTER” (UIF (University Industry Foundation), Yonsei University, priority 2022, published 2025)
